Reference: US7385026B1, “Modified ghrelin polypeptides” (priority 1999, dated 2008)
pEC50: −log10 of the molar value. Square brackets hold non-standard residues; d marks the D form. Peptide text beside a SMILES is read from it. * marks the point of attachment. Octanoyl = CCCCCCCC(=O)*; Ava = NCCCCC(=O)O

Target: T1, rat GHS-receptor (GHR-R) (Rattus norvegicus, UniProt O08725)
T1 construct: A full-length cDNA for rat GHR-R was obtained by RT-PCR; expressed in transfected cells
Assay: Ca-releasing activity (increase in intracellular calcium) in CHO-GHSR62 cells, FLIPR
Assay type: cell-based
Details: not given
From the text: To assay an increase in the intracellular calcium ion concentration (Ca-releasing activity) occurring upon binding of a GH secretagogue (GHS) to GHS-receptor (GHR-R), a cell strain expressing rat GHR-R was created in the following manner. A full-length cDNA for rat GHR-R was obtained by RT-PCR (reverse transcriptase-polymerase chain reaction) where a cDNA derived from rat brain was used as template. From the nucleotide sequence of known rat GHR-R [K. K. Mckee, et al, Molecular Endocrinology 11, 415-423 (1997)], sense and antisense primers consisting of the following nucleotide sequences were synthesized.
The amplified cDNA was ligated to vector pcDNAIII (Invitrogen) to construct expression vector GHSR-pcDNAIII. CHO cells were transformed via the expression vector, and the transformed cells stably expressing GHR-R were selected in a medium containing 1 μg/ml G418. […] A change in the intracellular calcium ion concentration (Ca-releasing activity) was measured by an FLIPR system (Molecular Device). Before this measurement, 4×10^4 CHO-GHSR62 cells were put to a 96-well microplate with black wall (Corning Co., Ltd) and cultured for 12 to 15 hours. Then, the cells were incubated with 4 μM fluorescent Fluo4 (Molecular Probe Co., Ltd) for 1 hour and washed four times with Hank's BSS (Hank's Balanced Salt Solution) containing 20 mM Hepes ([N-2-hydroxyethyl]-piperazine-N-[2-ethanesulfonic acid]) and 2.5 mM probenecid, and the Ca-releasing activity was assayed by adding a sample and measuring a change in the fluorescence.
Peptide fragments obtained by partially digested the rat- and human-derived ghrelins by various proteases, or chemically synthesized peptides, were examined for their Ca releasing activity in order to determine a core amino acid sequence and the optimum chain length of a modifying fatty acid necessary for Ca-releasing activity.
The Ca-increasing activities of the ghrelin derivative peptide-type compounds synthesized in Example 10 and the natural ghrelin peptide were measured in the same manner as in Example 1.
In this examination, the intracellular Ca-releasing activity in CHO cells expressing rat GSH receptor was used as the indicator.

T1 sequence (O08725 whole entry): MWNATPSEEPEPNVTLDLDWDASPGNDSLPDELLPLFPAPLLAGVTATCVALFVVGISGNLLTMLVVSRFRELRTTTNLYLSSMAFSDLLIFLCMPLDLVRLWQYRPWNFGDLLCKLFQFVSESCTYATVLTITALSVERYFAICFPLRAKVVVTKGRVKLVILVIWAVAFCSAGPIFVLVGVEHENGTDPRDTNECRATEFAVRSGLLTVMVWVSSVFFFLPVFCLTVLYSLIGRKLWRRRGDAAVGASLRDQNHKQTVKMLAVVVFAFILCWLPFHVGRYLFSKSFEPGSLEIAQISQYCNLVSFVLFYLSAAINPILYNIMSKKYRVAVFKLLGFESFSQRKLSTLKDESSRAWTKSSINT

Ca-releasing activity relative to ghrelin(1-4) amide	Ca-releasing activity of ghrelin (1-4) after amidation relative to before amidation	Ca-releasing activity relative to ghrelin (1-4) before addition of lysine	Structure (SMILES)
about 26 times			CCCCCCCC(=O)OC[C@H](NC(=O)[C@H](CO)NC(=O)CN)C(=O)N[C@@H](Cc1ccccc1)C(=O)N[C@@H](CC(C)C)C(N)=O [Compound 32, Ghrelin (1-5)-amide] (H-GSS(Octanoyl)FL-NH2)
	about 3 times		CCCCCCCC(=O)OC[C@H](NC(=O)[C@H](CO)NC(=O)CN)C(=O)N[C@@H](Cc1ccccc1)C(N)=O [Compound 33-2, Ghrelin (1-4)-amide] (H-GSS(Octanoyl)F-NH2)
		about 50 times	CCCCCCCC(=O)OC[C@H](NC(=O)[C@H](CO)NC(=O)CN)C(=O)N[C@@H](Cc1ccccc1)C(=O)N[C@@H](CCCCN)C(N)=O [Compound 38, [Lys^5]-Ghrelin (1-5)-amide] (H-GSS(Octanoyl)FK-NH2)

Same assay, conditions: CHO-GHSR62 cells (CHO cells expressing rat GHS receptor), FLIPR; read-out: Ca-releasing activity EC50

Structure (SMILES)	pEC50
CCCCCCCC(=O)OC[C@H](NC(=O)[C@H](CO)NC(=O)CN)C(=O)N[C@@H](Cc1ccccc1)C(=O)N[C@@H](CC(C)C)C(=O)N[C@@H](CO)C(=O)N1CCC[C@H]1C(=O)N[C@@H](CCC(=O)O)C(N)=O [Compound 28, Ghrelin (1-8)-amide]	7.89
CCCCCCCC(=O)OC[C@H](NC(=O)[C@H](CO)NC(=O)CN)C(=O)N[C@@H](Cc1ccccc1)C(=O)N[C@@H](CC(C)C)C(=O)N[C@@H](CO)C(=O)N1CCC[C@H]1C(N)=O [Compound 29, Ghrelin (1-7)-amide]	8.59
CCCCCCCC(=O)OC[C@H](NC(=O)[C@H](CO)NC(=O)CN)C(=O)N[C@@H](Cc1ccccc1)C(=O)N[C@@H](CC(C)C)C(N)=O [Compound 32, Ghrelin (1-5)-amide] (H-GSS(Octanoyl)FL-NH2)	8.21
CCCCCCCC(=O)OC[C@H](NC(=O)[C@H](CO)NC(=O)CN)C(=O)N[C@@H](Cc1ccccc1)C(=O)O [Compound 33-1, Ghrelin (1-4)] (H-GSS(Octanoyl)F-OH)	6.32
CCCCCCCC(=O)OC[C@H](NC(=O)[C@H](CO)NC(=O)CN)C(=O)N[C@@H](Cc1ccccc1)C(N)=O [Compound 33-2, Ghrelin (1-4)-amide] (H-GSS(Octanoyl)F-NH2)	6.80
CCCCCCCC(=O)OC[C@H](NC(=O)[C@H](CO)NC(=O)CN)C(=O)N[C@@H](Cc1ccccc1)C(=O)N[C@@H](CC(C)C)C(=O)N[C@@H](CCCCN)C(N)=O [Compound 37, [Lys^6]-Ghrelin (1-6)-amide] (H-GSS(Octanoyl)FLK-NH2)	7.92
CCCCCCCC(=O)OC[C@H](NC(=O)[C@H](CO)NC(=O)CN)C(=O)N[C@@H](Cc1ccccc1)C(=O)N[C@@H](CCCCN)C(N)=O [Compound 38, [Lys^5]-Ghrelin (1-5)-amide] (H-GSS(Octanoyl)FK-NH2)	8.00
CCCCCCCC(=O)OC[C@H](NC(=O)CCCCN)C(=O)N[C@@H](Cc1ccccc1)C(=O)N[C@@H](CC(C)C)C(=O)N[C@@H](CO)C(=O)N1CCC[C@H]1C(N)=O [Compound 40, [N-Aminopentanoyl]-Ghrelin (3-7)-amide] (H-[Ava]S(Octanoyl)FLSP-NH2)	8.47
CCCCCCCC(=O)OC[C@H](NC(=O)[C@H](CO)NC(=O)CNC(=O)[C@@H](N)Cc1ccc(O)cc1)C(=O)N[C@@H](Cc1ccccc1)C(=O)N[C@@H](CC(C)C)C(=O)N[C@@H](CO)C(=O)N1CCC[C@H]1C(=O)N[C@@H](CCC(=O)O)C(=O)N[C@@H](Cc1c[nH]cn1)C(=O)N[C@@H](CCC(N)=O)C(=O)N[C@@H](CCCCN)C(=O)N[C@@H](C)C(=O)N[C@@H](CCC(N)=O)C(=O)N[C@@H](CCC(N)=O)C(=O)N[C@@H](CCCNC(=N)N)C(=O)N[C@@H](CCCCN)C(=O)N[C@@H](CCC(=O)O)C(=O)N[C@@H](CO)C(=O)N[C@@H](CCCCN)C(=O)N[C@@H](CCCCN)C(=O)N1CCC[C@H]1C(=O)N1CCC[C@H]1C(=O)N[C@@H](C)C(=O)N[C@@H](CCCCN)C(=O)N[C@@H](CC(C)C)C(=O)N[C@@H](CCC(N)=O)C(=O)N1CCC[C@H]1C(=O)N[C@@H](CCCNC(=N)N)C(=O)O [Compound 42, [N-Tyr]-rGhrelin]	6.92
CCCCCCCC(=O)OC[C@H](NC(=O)CN)C(=O)N[C@@H](Cc1ccccc1)C(=O)N[C@@H](CC(C)C)C(=O)N[C@@H](CO)C(=O)N1CCC[C@H]1C(N)=O [Compound 43, [N-Glycyl]-Ghrelin (3-7)-amide] (H-GS(Octanoyl)FLSP-NH2)	6.42
CCCCCCCC(=O)OC[C@H](NC(=O)[C@H](Cc1c[nH]cn1)NC(=O)CN)C(=O)N[C@@H](Cc1ccccc1)C(=O)N[C@@H](CC(C)C)C(=O)N[C@@H](CO)C(=O)N1CCC[C@H]1C(N)=O [Compound 45, [His^2]-Ghrelin (1-7)-amide] (H-GHS(Octanoyl)FLSP-NH2)	7.46
CCCCCCCC(=O)OC[C@H](NC(=O)[C@H](CCCCN)NC(=O)CN)C(=O)N[C@@H](Cc1ccccc1)C(=O)N[C@@H](CC(C)C)C(=O)N[C@@H](CO)C(=O)N1CCC[C@H]1C(N)=O [Compound 46, [Lys^2]-Ghrelin (1-7)-amide] (H-GKS(Octanoyl)FLSP-NH2)	7.62

Second part, the molecule after the results:

pEC50	Structure (SMILES)
7.42	CCCCCCCC(=O)OC[C@H](NC(=O)[C@H](CO)NC(=O)CN)C(=O)N[C@@H](Cc1ccccc1)C(=O)N[C@@H](CC(C)C)C(=O)N[C@@H](CO)C(=O)N1CCC[C@H]1C(=O)N[C@@H](CCC(=O)O)C(=O)N[C@@H](Cc1c[nH]cn1)C(=O)O [Compound 26, Ghrelin (1-9)] (H-GSS(Octanoyl)FLSPEH-OH)
8.32	CCCCCCCC(=O)OC[C@H](NC(=O)[C@H](CO)NC(=O)CN)C(=O)N[C@@H](Cc1ccccc1)C(=O)N[C@@H](CC(C)C)C(=O)N[C@@H](CO)C(N)=O [Compound 30, Ghrelin (1-6)-amide] (H-GSS(Octanoyl)FLS-NH2)
< 5.00	CCCCCCCC(=O)OC[C@H](NC(=O)[C@H](CO)NC(=O)CN)C(N)=O [Compound 34, Ghrelin (1-3)-amide] (H-Gly-Ser-Ser(Octanoyl)-NH2)
8.96	CCCCCCCC(=O)OC[C@H](NC(=O)[C@H](CO)NC(=O)CN)C(=O)N[C@@H](Cc1ccccc1)C(=O)N[C@@H](CC(C)C)C(=O)N[C@@H](CO)C(=O)N1CCC[C@H]1C(=O)N[C@@H](CCCCN)C(N)=O [Compound 35, [Lys^8]-Ghrelin (1-8)-amide] (H-GSS(Octanoyl)FLSPK-NH2)
8.96	CCCCCCCC(=O)OC[C@H](NC(=O)[C@H](CO)NC(=O)CN)C(=O)N[C@@H](Cc1ccccc1)C(=O)N[C@@H](CC(C)C)C(=O)N[C@@H](CO)C(=O)N1CCC[C@H]1C(=O)N[C@@H](CCCNC(=N)N)C(N)=O [Compound 36, [Arg^8]-Ghrelin (1-8)-amide] (H-GSS(Octanoyl)FLSPR-NH2)
5.77	CCCCCCCC(=O)OC[C@H](NC(=O)[C@H](CO)NC(=O)CN)C(=O)N[C@H](Cc1ccccc1)C(=O)N[C@@H](CCCCN)C(N)=O [Compound 39, [^DPhe^4, Lys^5]-Ghrelin (1-5)-amide] (H-GSS(Octanoyl)[dF]K-NH2)
< 5.00	CCCCCCCC(=O)OC[C@H](NC(=O)[C@H](CO)NC(=O)CNC(C)=O)C(=O)N[C@@H](Cc1ccccc1)C(=O)N[C@@H](CC(C)C)C(=O)N[C@@H](CO)C(=O)N1CCC[C@H]1C(=O)N[C@@H](CCC(=O)O)C(=O)N[C@@H](Cc1c[nH]cn1)C(=O)N[C@@H](CCC(N)=O)C(=O)O [Compound 41, [N-Acetyl]-Ghrelin (1-10)]
7.38	CCCCCCCC(=O)OC[C@H](NC(=O)[C@H](CC(C)C)NC(=O)CN)C(=O)N[C@@H](Cc1ccccc1)C(=O)N[C@@H](CC(C)C)C(=O)N[C@@H](CO)C(=O)N1CCC[C@H]1C(N)=O [Compound 44, [Leu^2]-Ghrelin (1-7)-amide] (H-GLS(Octanoyl)FLSP-NH2)
7.11	CCCCCCCC(=O)OC[C@H](NC(=O)CNC(=O)CN)C(=O)N[C@@H](Cc1ccccc1)C(=O)N[C@@H](CC(C)C)C(=O)N[C@@H](CO)C(=O)N1CCC[C@H]1C(N)=O [Compound 47, [Gly^2]-Ghrelin (1-7)-amide] (H-GGS(Octanoyl)FLSP-NH2)

Same assay, conditions: Table 3, Example 9: protease fragments or synthetic peptides; CHO-GHSR62 cells; read-out: Ca-releasing activity (EC50)

pEC50	Structure (SMILES)
7.82	CCCCCCCC(=O)OC[C@H](NC(=O)[C@H](CO)NC(=O)CN)C(=O)N[C@@H](Cc1ccccc1)C(=O)N[C@@H](CC(C)C)C(=O)N[C@@H](CO)C(=O)N1CCC[C@H]1C(=O)N[C@@H](CCC(=O)O)C(=O)N[C@@H](Cc1c[nH]cn1)C(=O)N[C@@H](CCC(N)=O)C(=O)N[C@@H](CCCNC(=N)N)C(=O)O [Compound 23, hGhrelin (1-11)]
7.82	CCCCCCCC(=O)OC[C@H](NC(=O)[C@H](CO)NC(=O)CN)C(=O)N[C@@H](Cc1ccccc1)C(=O)N[C@@H](CC(C)C)C(=O)N[C@@H](CO)C(=O)N1CCC[C@H]1C(=O)N[C@@H](CCC(=O)O)C(=O)N[C@@H](Cc1c[nH]cn1)C(=O)N[C@@H](CCC(N)=O)C(=O)N[C@@H](CCCCN)C(=O)O [Compound 24, rGbrelin (1-11)]
7.72	CCCCCCCC(=O)OC[C@H](NC(=O)[C@H](CO)NC(=O)CN)C(=O)N[C@@H](Cc1ccccc1)C(=O)N[C@@H](CC(C)C)C(=O)N[C@@H](CO)C(=O)N1CCC[C@H]1C(=O)N[C@@H](CCC(=O)O)C(=O)N[C@@H](Cc1c[nH]cn1)C(=O)N[C@@H](CCC(N)=O)C(=O)O [Compound 25, Ghrelin (1-10)]
7.00	CCCCCCCC(=O)OC[C@H](NC(=O)[C@H](CO)NC(=O)CN)C(=O)N[C@@H](Cc1ccccc1)C(=O)N[C@@H](CC(C)C)C(=O)N[C@@H](CO)C(=O)N1CCC[C@H]1C(=O)N[C@@H](CCC(=O)O)C(=O)O [Compound 27, Ghrelin (1-8)]
